Test results as given in ChEMBL document CHEMBL1138324, “Synthesis and nicotinic acetylcholine receptor binding properties of bridged and fused ring analogues of epibatidine” (J Med Chem, 2007).

What was measured:
[1] = biological target: T1, Neuronal acetylcholine receptor; alpha4/beta2 (Homo sapiens, UniProt P17787+P43681); experiment: Displacement of [3H]epibatidine from alpha-4-beta-2 nAChR at 31.6 uM; assay type: protein-complex assay
[2] = biological target: Neuronal acetylcholine receptor subunit alpha-7 (Homo sapiens) (UniProt P36544); experiment: Displacement of [125I]iodoMLA from alpha-7 nAChR at 50 nM
[3] = biological target: T1, Neuronal acetylcholine receptor; alpha4/beta2; experiment: Displacement of [3H]epibatidine from alpha-4-beta-2 nAChR; assay type: protein-complex assay
Mus musculus [4] = experiment: Antinociceptive effect in mouse at 10 mg/kg by hot plate test; assay type: functional
Mus musculus [5] = experiment: Effect on hypothermia in mouse assessed as change in body temperature at 10 mg/kg; assay type: functional
Mus musculus [6] = experiment: Antinociceptive effect in mouse at 10 mg/kg by tail flick test; assay type: functional
Mus musculus [7] = experiment: Inhibition of nicotine-induced antinociceptive effect in sc dosed mouse by hot plate test; assay type: functional
Mus musculus [8] = experiment: Inhibition of nicotine-induced hypothermia in mouse assessed as change in body temperature at 5000 ug/kg, sc; assay type: functional; set-up: scale not given: the % may be the effect or the level left
Mus musculus [9] = experiment: Inhibition of nicotine-induced antinociceptive effect in sc dosed mouse by tail flick test; assay type: functional
Mus musculus [10] = experiment: Inhibition of nicotine-induced hypothermia in mouse assessed as change in body temperature at 0.5 ug/kg, sc; assay type: functional; set-up: scale not given: the % may be the effect or the level left
Mus musculus [11] = organism: Mus musculus; experiment: Effect on hypothermia in mouse assessed as change in body temperature; assay type: functional
Mus musculus [12] = organism: Mus musculus; experiment: Antinociceptive effect in mouse by tail flick test; assay type: functional
Mus musculus [13] = organism: Mus musculus; experiment: Antinociceptive effect in mouse by hot plate test; assay type: functional
Mus musculus [14] = experiment: Inhibition of nicotine-induced antinociceptive effect in mouse at 0.5 ug/kg, sc by hot plate test; assay type: functional
Mus musculus [15] = experiment: Inhibition of nicotine-induced antinociceptive effect in mouse at 15000 ug/kg, sc by hot plate test; assay type: functional
Mus musculus [16] = experiment: Inhibition of nicotine-induced hypothermia in mouse assessed as change in body temperature at 15000 ug/kg, sc; assay type: functional; set-up: scale not given: the % may be the effect or the level left

Sequence of Neuronal acetylcholine receptor subunit alpha-7 (Homo sapiens) (P36544 whole entry): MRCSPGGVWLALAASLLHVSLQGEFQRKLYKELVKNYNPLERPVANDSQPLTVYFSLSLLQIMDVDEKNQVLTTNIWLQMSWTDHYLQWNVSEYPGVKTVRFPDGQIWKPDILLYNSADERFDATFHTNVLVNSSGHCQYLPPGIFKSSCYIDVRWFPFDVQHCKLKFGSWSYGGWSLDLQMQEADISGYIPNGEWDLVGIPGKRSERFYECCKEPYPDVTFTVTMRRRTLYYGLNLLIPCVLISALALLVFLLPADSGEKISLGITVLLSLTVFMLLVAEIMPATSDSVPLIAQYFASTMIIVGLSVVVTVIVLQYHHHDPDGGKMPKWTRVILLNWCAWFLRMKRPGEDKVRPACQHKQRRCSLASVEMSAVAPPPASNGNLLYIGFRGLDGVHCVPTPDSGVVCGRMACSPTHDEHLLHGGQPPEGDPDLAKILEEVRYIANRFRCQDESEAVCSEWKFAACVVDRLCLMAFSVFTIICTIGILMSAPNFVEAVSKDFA
T1 sequence (P17787 whole entry): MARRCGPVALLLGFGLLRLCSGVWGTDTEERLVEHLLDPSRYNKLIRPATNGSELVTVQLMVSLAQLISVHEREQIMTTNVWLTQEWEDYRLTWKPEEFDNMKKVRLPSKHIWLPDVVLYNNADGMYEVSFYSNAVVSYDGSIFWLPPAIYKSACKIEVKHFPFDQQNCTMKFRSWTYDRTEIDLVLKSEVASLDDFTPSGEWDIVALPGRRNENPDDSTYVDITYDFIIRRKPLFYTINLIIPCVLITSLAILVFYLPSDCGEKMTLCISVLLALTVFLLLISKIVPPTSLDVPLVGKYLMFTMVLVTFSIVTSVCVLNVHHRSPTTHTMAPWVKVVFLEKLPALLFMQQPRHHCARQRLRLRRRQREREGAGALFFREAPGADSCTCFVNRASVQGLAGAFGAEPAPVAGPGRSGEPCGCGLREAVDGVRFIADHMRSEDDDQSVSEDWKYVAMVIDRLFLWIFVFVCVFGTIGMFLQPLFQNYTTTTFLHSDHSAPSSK
T1 sequence (P43681 whole entry): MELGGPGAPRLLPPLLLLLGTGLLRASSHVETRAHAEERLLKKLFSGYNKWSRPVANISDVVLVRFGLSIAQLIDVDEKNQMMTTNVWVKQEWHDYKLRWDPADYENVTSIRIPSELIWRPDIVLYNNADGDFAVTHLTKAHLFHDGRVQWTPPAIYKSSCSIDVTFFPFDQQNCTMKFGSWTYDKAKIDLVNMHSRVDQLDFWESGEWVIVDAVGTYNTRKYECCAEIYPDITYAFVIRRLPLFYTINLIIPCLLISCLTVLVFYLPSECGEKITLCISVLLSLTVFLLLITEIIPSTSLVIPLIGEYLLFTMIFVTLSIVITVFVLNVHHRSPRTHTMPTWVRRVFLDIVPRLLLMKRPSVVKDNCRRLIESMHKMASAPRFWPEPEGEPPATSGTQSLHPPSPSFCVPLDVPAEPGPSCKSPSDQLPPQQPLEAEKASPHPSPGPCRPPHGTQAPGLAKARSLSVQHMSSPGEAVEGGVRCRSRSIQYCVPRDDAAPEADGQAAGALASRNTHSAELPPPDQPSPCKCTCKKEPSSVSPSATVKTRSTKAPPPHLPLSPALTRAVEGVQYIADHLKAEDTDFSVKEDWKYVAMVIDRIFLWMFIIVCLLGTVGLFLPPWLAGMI

## C1=CC2NC1c1ccncc12 (stereo not drawn)
[1]
  Activity: < 15%
[2]
  Activity: 0%

## Clc1cc2c(cn1)C1CC3CCC1N3C2 (stereo not drawn)
[3]
  Ki: 3330 nM
Mus musculus [4]
  Activity: 18%
Mus musculus [5]
  Activity: 0%
Mus musculus [6]
  Activity: 2%

## Fc1ncc(C2CC3NC2c2ccccc23)cc1-c1ccccc1 (stereo not drawn)
[3]
  Ki: 128 nM
[2]
  Activity: 0%

## Nc1ccc2c(n1)CN1C3CCC1C2C3 (stereo not drawn)
[3]
  Ki: 7370 nM
Mus musculus [4]
  Activity: 10%
Mus musculus [5]
  Activity: 0%
Mus musculus [6]
  Activity: 4%

## Cc1cc(Cl)ncc1C1CC2CCC1N2 (stereo not drawn)
Mus musculus [4]
  Activity: 20%
Mus musculus [7]
  AD50: 1200 µg/kg
Mus musculus [5]
  Activity: 0%
Mus musculus [8]
  Activity: 0%
Mus musculus [9]
  AD50: 400 µg/kg
Mus musculus [6]
  Activity: 4%

## c1cc2c(cn1)C1CCC2N1 (stereo not drawn)
[1]
  Activity: < 15%
[2]
  Activity: 0%

## c1cnc2c(c1)C1CCC2N1 (stereo not drawn)
[1]
  Activity: < 15%
[2]
  Activity: 0%

## Clc1ccc(C2CC3NC2c2ccccc23)cn1 (stereo not drawn)
[3]
  Ki: 65.2 nM
[2]
  Activity: 0%

## CN1C2CCC1C(c1ccc(Cl)nc1)C2 (stereo not drawn)
Mus musculus [10]
  Activity: 0%
Mus musculus [11]
  ED50: 3 µg/kg
Mus musculus [12]
  ED50: 4.4 µg/kg
[3]
  Ki: 0.038 nM
Mus musculus [13]
  ED50: 3 µg/kg
Mus musculus [14]
  inhibition in vivo at 0.0005 mg/kg: 23%
Mus musculus [9]
  AD50: 0.048 µg/kg

## Clc1ccc([C@@H]2C[C@H]3CC[C@@H]2N3)cn1 [(+)-EPIBATIDINE]
Mus musculus [11]
  ED50: 4 µg/kg
Mus musculus [12]
  ED50: 6 µg/kg
Mus musculus [13]
  ED50: 4 µg/kg

## Clc1ccc2c(n1)CN1C3CCC1C2C3 (stereo not drawn)
Mus musculus [4]
  Activity: 17%
Mus musculus [5]
  Activity: 0%
Mus musculus [6]
  Activity: 3%

## Cc1nc(Cl)ccc1C1CC2CCC1N2 (stereo not drawn)
Mus musculus [15]
  inhibition in vivo at 15 mg/kg: 10%
[3]
  Ki: 256 nM
Mus musculus [4]
  Activity: 14%
Mus musculus [5]
  Activity: 0%
Mus musculus [9]
  AD50: 9000 µg/kg
Mus musculus [6]
  Activity: 1%
Mus musculus [16]
  Activity: 0%

## Nc1cc2c(cn1)C1CC3CCC1N3C2 (stereo not drawn)
[3]
  Ki: 12400 nM
Mus musculus [4]
  Activity: 16%
Mus musculus [5]
  Activity: 0%
Mus musculus [6]
  Activity: 2%
